Legend:
IDH1 R132H enzyme = IDH1 R132H enzyme (Homo sapiens (Human), UniProt O75874, R132H); test: Mutant IDH1 R132H biochemical assay; settings: NADPH consumption, luminescent readout; 1.5 nM enzyme, 250 μM α-KG, 1 μM NADPH, 30 minutes, 32° C.; test range 0.002-10 μM
Description: mIDH1 catalyzes the NADPH-dependent reduction of alpha-ketoglutarate (α-KG) to (2R)-2-hydroxyglutarate (2-HG). NADPH consumption was measured by luminescent readout.
The biochemical reactions were performed at 32° C. in 384-well plates using a reaction volume of 41 μl and the following assay buffer conditions: 50 mM Tris pH 7.5, 100 mM NaCl, 20 mM MgCl2, 0.05% BSA, 0.01% Brij, 1 μM NADPH, and 250 μM α-KG. […] Test compounds were used in a concentration range between 0.002 and 10 μM. The final DMSO concentration was 2.4%.
The reaction was incubated for 30 minutes, then 40 μl of detection mix (0.75 μg/ml Luciferase, 0.02 U/ml Oxidoreductase, 4 μg/ml FMN, 2 μl/ml Decanal/Ethanol, 50 mM Tris pH 7.5, 0.5% Glycerin, 0.01% Tween-20, 0.05% BSA) was added. Luminescence was measured on a luminescent reader (10 seconds measuring time, 1 second integration period, 30% sensitivity). The decrease in luminescence is proportional to mIDH1 activity. IC50 values are determined by interpolation from plots of relative luminescence versus inhibitor concentration.

[1] = biological target: mutated isocitrate dehydrogenase (mIDH) protein overexpressed in LN229 R132H cells (Homo sapiens (Human), UniProt O75874, R132H); test: Mutant IDH1 cellular assay (2-HG in medium of LN229 R132H cells); assay type: cell-based; settings: 24 hours, fluorescence readout
mutated isocitrate dehydrogenase (mIDH) protein overexpressed in LN229 R132H cells, sequence (O75874 whole entry R132H): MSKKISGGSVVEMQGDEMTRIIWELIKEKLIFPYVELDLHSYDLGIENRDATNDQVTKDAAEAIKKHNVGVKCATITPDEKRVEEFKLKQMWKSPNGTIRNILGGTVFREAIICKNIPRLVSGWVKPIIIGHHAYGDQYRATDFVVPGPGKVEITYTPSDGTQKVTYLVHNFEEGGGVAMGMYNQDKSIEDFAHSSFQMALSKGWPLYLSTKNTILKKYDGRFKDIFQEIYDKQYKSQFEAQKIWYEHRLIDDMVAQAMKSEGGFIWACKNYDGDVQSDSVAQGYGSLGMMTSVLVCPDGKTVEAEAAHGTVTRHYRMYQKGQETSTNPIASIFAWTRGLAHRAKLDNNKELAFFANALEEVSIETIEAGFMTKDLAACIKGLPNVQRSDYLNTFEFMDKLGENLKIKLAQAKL
Description: Mutant IDH1 Cellular Assay
Levels of (2R)-2-hydroxyglutarate (2HG) were measured in medium of a cell line with overexpression of mutated isocitrate dehydrogenase (mIDH) protein. mIDH catalyzes the NADPH-dependent reduction of alpha-ketoglutarate to 2-HG. Cells (LN229 R132H, Mohrenz et al., Apoptosis (2013) 18:1416-1425) were grown in DMEM containing 10% FCS. They were harvested by trypsin and seeded into 96-well plates. Cells were incubated overnight at 37° C. in 5% CO2. The next day test compounds were added to each cell well. The final concentration of DMSO was 0.1% and DMSO controls were included. The plates were then placed in an incubator for 24 hours.
2-HG was measured according to Balss et al. (Acta Neuropathol (2012) 124: 883-891). Briefly, HClO4 was added to each well and the plates were centrifuged. Aliquots are removed and incubated with hydroxyglutarate dehydrogenase (HGDH), diaphorase, NAD+, and resazurin. The conversion of resazurin to resorufin was detected by fluorescence spectroscopy at Ex 540 nm Em 600 nm. The increase in fluorescence is proportional to 2-HG production. IC50 values are determined by interpolation from plots of relative fluorescence vs inhibitor concentration.

IDH1 R132H enzyme, sequence (O75874 whole entry R132H): as above

Row | SMILES | IC50 (IDH1 R132H enzyme) | IC50 [1]
1 | Cc1noc(C)c1-c1ccc2c(c1)nc(Nc1ccc(OC(F)(F)F)cc1)n2[C@H]1C[C@@H](C)CC(C)(C)C1 (single isomer, unassigned) [Example 2-1-2, 5-(3,5-dimethyl-1,2-oxazol-4-yl)-N-[4-(trifluoromethoxy)phenyl]-1-[(cis)-3,3,5-trimethylcyclohexyl]-1H-benzimidazol-2-amine] | 70 nM | –
2 | Cc1n[nH]c(C)c1-c1ccc2c(c1)nc(Nc1ccc(OC(F)(F)F)cc1)n2[C@@H]1C[C@H](C)CC(C)(C)C1 (stereo in doubt) [Example 2-5-1] | 670 nM | –
3 | C[C@@H]1C[C@H](n2c(Nc3ccc(OC(F)(F)F)cc3)nc3cc(-c4cn(C)nc4C(F)(F)F)ccc32)CC(C)(C)C1 (stereo in doubt) [Example 2-16-2] | 780 nM | –
4 | Cc1n[nH]c(C)c1-c1ccc2c(c1)nc(Nc1ccc(C(F)(F)F)cc1)n2[C@H]1C[C@@H](C)CC(C)(C)C1 (stereo in doubt) [Example 2-24-2] | 140 nM | 7000 nM
5 | Cc1n[nH]c(C)c1-c1ccc2c(c1)nc(Nc1ccc(SC(F)(F)F)cc1)n2[C@H]1C[C@@H](C)CC(C)(C)C1 (stereo in doubt) [Example 2-10-2] | 140 nM | 3000 nM
6 | Cc1cc(-c2ccc3c(c2)nc(Nc2ccc(OC(F)(F)F)cc2)n3[C@@H]2C[C@H](C)CC(C)(C)C2)n(C)n1 (stereo in doubt) [Example 2-12-1] | 4300 nM | –
7 | C[C@@H]1C[C@H](n2c(Nc3ccc(OC(F)(F)F)cc3)nc3cc(-c4cnn(C)c4)ccc32)CC(C)(C)C1 (stereo in doubt) [Example 2-13-2] | 1000 nM | –
8 | Cc1cc(-c2ccc3c(c2)nc(Nc2ccc(OC(F)(F)F)cc2)n3[C@H]2C[C@@H](C)CC(C)(C)C2)n(C)n1 (stereo in doubt) [Example 2-12-2] | 1600 nM | –
9 | C[C@H]1C[C@@H](n2c(Nc3ccc(OC(F)(F)F)cc3)nc3cc(-c4cn(C)nc4C(F)(F)F)ccc32)CC(C)(C)C1 (stereo in doubt) [Example 2-16-1] | 7800 nM | –
10 | C[C@H]1C[C@@H](n2c(Nc3ccc(OC(F)(F)F)cc3)nc3cc(-c4cnn(C)c4)ccc32)CC(C)(C)C1 (stereo in doubt) [Example 2-13-1] | 240 nM | –
11 | Cc1noc(C)c1-c1ccc2c(c1)nc(Nc1ccc(OC(F)(F)F)cc1)n2[C@H]1C[C@@H](C)CC(C)(C)C1 (single isomer, unassigned) [Example 2-1-1, 5-(3,5-dimethyl-1,2-oxazol-4-yl)-N-[4-(trifluoromethoxy)phenyl]-1-[(cis)-3,3,5-trimethylcyclohexyl]-1H-benzimidazol-2-amine] | 240 nM | –

Now from value to molecule:

Row | IC50 (IDH1 R132H enzyme) | IC50 [1] | SMILES
12 | 130 nM | – | Cc1nnc(-c2ccc3c(c2)nc(Nc2ccc(OC(F)(F)F)cc2)n3C2CC(C)(C)CC(C)(C)C2)o1 [Example 2-25, 5-(5-Methyl-1,3,4-oxadiazol-2-yl)-1-(3,3,5,5-tetramethylcyclohexyl)-N-[4-(trifluoromethoxy)phenyl]-1H-benzimidazol-2-amine]
13 | 460 nM | – | C[C@@H]1C[C@H](n2c(Nc3ccc(OC(F)(F)F)cc3)nc3cc(-c4ccc(C(=O)O)cc4)ccc32)CC(C)(C)C1 (racemic) [Example 2-3, (±) 4-(2-{[4-(trifluoromethoxy)phenyl]amino}-1-[(cis)-3,3,5-trimethylcyclohexyl]-1H-benzimidazol-5-yl)benzoic acid]
14 | 240 nM | – | CCOc1noc(C)c1-c1ccc2c(c1)nc(Nc1ccc(OC(F)(F)F)cc1)n2[C@H]1C[C@@H](C)CC(C)(C)C1 (racemic) [Example 2-35, (±) 5-(3-ethoxy-5-methyl-1,2-oxazol-4-yl)-N-[4-(trifluoromethoxy)phenyl]-1-[(cis)-3,3,5-trimethylcyclohexyl]-1H-benzimidazol-2-amine]
15 | 4000 nM | 2700 nM | Cc1cc2c(cc1-c1c(C)n[nH]c1C)nc(Nc1ccc(OC(F)(F)F)cc1)n2C1CC(C)(C)CC(C)(C)C1 [Example 2-29, 5-(3,5-dimethyl-1H-pyrazol-4-yl)-6-methyl-1-(3,3,5,5-tetramethylcyclohexyl)-N-[4-(trifluoromethoxy)phenyl]-1H-benzimidazol-2-amine]
16 | 130 nM | 2000 nM | C[C@H]1C[C@@H](n2c(Nc3ccc(OC(F)(F)F)cc3)nc3cc(-c4ccn[nH]4)ccc32)CC(C)(C)C1 (stereo in doubt) [Example 2-8]
17 | 180 nM | 2000 nM | C[C@H]1C[C@@H](n2c(Nc3ccc(OC(F)(F)F)cc3)nc3cc(-c4cnoc4)ccc32)CC(C)(C)C1 (stereo in doubt) [Example 2-9]
18 | 1900 nM | 10000 nM | Cc1nn(C)c(C)c1-c1ccc2c(c1)nc(Nc1ccc(OC(F)(F)F)cc1)n2[C@@H]1C[C@H](C)CC(C)(C)C1 (stereo in doubt) [Example 2-19]
19 | 180 nM | – | Cc1cc(-c2ccc3c(c2)nc(Nc2ccc(OC(F)(F)F)cc2)n3[C@H]2C[C@@H](C)CC(C)(C)C2)cc(C)c1O (racemic) [Example 2-34, (±) 2,6-dimethyl-4-(2-{[4-(trifluoromethoxy)phenyl]amino}-1-[(cis)-3,3,5-trimethylcyclohexyl]-1H-benzimidazol-5-yl)phenol]
20 | 110 nM | 1200 nM | Cc1n[nH]cc1-c1ccc2c(c1)nc(Nc1ccc(OC(F)(F)F)cc1)n2[C@@H]1C[C@H](C)CC(C)(C)C1 (stereo in doubt) [Example 2-7]
21 | 1800 nM | – | C[C@H]1C[C@H](n2c(Nc3ccc(OC(F)(F)F)cc3)nc3cc(-c4nnn[nH]4)ccc32)CC(C)(C)C1 (racemic) [Example 2-27, (±) 5-(1H-tetrazol-5-yl)-N-[4-(trifluoromethoxy)phenyl]-1-[(trans)-3,3,5-trimethylcyclohexyl]-1H-benzimidazol-2-amine]
22 | 120 nM | 900 nM | Cc1noc(C)c1-c1ccc2c(c1)nc(Nc1ccc(OC(F)(F)F)cc1)n2[C@H]1C[C@@H](C)CC(C)(C)C1 (racemic) [Example 2-1, (±) 5-(3,5-dimethyl-1,2-oxazol-4-yl)-N-[4-(trifluoromethoxy)phenyl]-1-[(cis)-3,3,5-trimethylcyclohexyl]-1H-benzimidazol-2-amine]
23 | 1100 nM | 5000 nM | C[C@H]1C[C@@H](n2c(Nc3ccc(OC(F)(F)F)cc3)nc3cc(-c4cnn(C)c4)ccc32)CC(C)(C)C1 (stereo in doubt) [Example 2-13]
24 | 770 nM | 2500 nM | C[C@H]1C[C@@H](n2c(Nc3ccc(SC(F)(F)F)cc3)nc3cc(-c4ccn[nH]4)ccc32)CC(C)(C)C1 (stereo in doubt) [Example 2-22]
25 | 440 nM | – | C[C@H]1C[C@@H](n2c(Nc3ccc(OC(F)(F)F)cc3)nc3cc(-c4ccc(C(N)=O)cc4)ccc32)CC(C)(C)C1 (stereo in doubt) [Example 2-17]
26 | – | 4000 nM | C[C@H]1C[C@@H](n2c(Nc3ccc(OC(F)(F)F)cc3)nc3cc(-c4ccnn4C)ccc32)CC(C)(C)C1 (stereo in doubt) [Example 2-20]
27 | 4000 nM | – | COC(=O)c1ccc(-c2ccc3c(c2)nc(Nc2ccc(OC(F)(F)F)cc2)n3[C@H]2C[C@@H](C)CC(C)(C)C2)cc1 (racemic) [Example 2-18, (±) Methyl 4-(2-{[4-(trifluoromethoxy)phenyl]amino}-1-[(cis)-3,3,5-trimethylcyclohexyl]-1H-benzimidazol-5-yl)benzoate]
28 | 1300 nM | – | COc1cc(-c2ccc3c(c2)nc(Nc2ccc(OC(F)(F)F)cc2)n3[C@@H]2C[C@H](C)CC(C)(C)C2)ccn1 (stereo in doubt) [Example 2-14]
29 | 670 nM | – | C[C@@H]1C[C@H](n2c(Nc3ccc(OC(F)(F)F)cc3)nc3cc(-c4cc(F)c(O)c(F)c4)ccc32)CC(C)(C)C1 (racemic) [Example 2-33, (±) 2,6-difluoro-4-(2-{[4-(trifluoromethoxy)phenyl]amino}-1-[(cis)-3,3,5-trimethylcyclohexyl]-1H-benzimidazol-5-yl)phenol]
30 | 290 nM | – | C[C@H]1C[C@@H](n2c(Nc3ccc(OC(F)(F)F)cc3)nc3cc(-c4cn(C)nc4C(F)(F)F)ccc32)CC(C)(C)C1 (stereo in doubt) [Example 2-16]
31 | 1500 nM | – | COC(=O)c1cccc(-c2ccc3c(c2)nc(Nc2ccc(OC(F)(F)F)cc2)n3[C@H]2C[C@@H](C)CC(C)(C)C2)c1 (racemic) [Example 2-15, (±) Methyl 3-(2-{[4-(trifluoromethoxy)phenyl]amino}-1-[(cis)-3,3,5-trimethylcyclohexyl]-1H-benzimidazol-5-yl)benzoate]
